Data from patent US20240390308A1, “APPLICATION METHOD OF POTASSIUM ION CHANNEL BLOCKER IN PREPARATION OF DRUGS FOR TREATING LIVER FIBROSIS” (Affiliated Hospital of Zunyi Medical University, priority 2023, published 2024).

Assays:
[1] = system: α-SMA; assay: α-SMA expression in liver tissue detected by immunohistochemistry; assay type: in vivo; settings: liver fibrosis mice induced by CCl4, treated with sotalol
Protocol: Experimental methods are as follows. The paraffin blocks prepared in the embodiment 1 are taken and performed immunohistochemistry according to the procedures after slicing into slices. The slices are soaked in 100%, 95%, 80%, and 75% ethanol for 5 minutes sequentially in that order, then rinsed them with the PBS solution, catalase is removed by using hydrogen peroxide, and antigens are repaired by sodium citrate repair solution. After cooling, the treated slices are rinsed with the PBS solution, sealed at room temperature for 30 minutes, then incubated overnight at 4° C. with primary antibodies, and incubated at room temperature with secondary antibodies for 1 hour on the next day. Then, the incubated slices are stained with diaminobenzidine (DAB), counterstained with hematoxylin, differentiated with hydrochloric acid alcohol, dehydrated, sealed, and finally observed and photographed under the microscope.

[2] = system: α-SMA, LC3, p62, N-cadherin, vimentin, ZO-1 in liver tissue; assay: Expression of α-SMA, autophagy-related index and EMT markers in liver tissue by Western-blot; assay type: in vivo, mice; settings: liver tissue induced by CCl4, after treatment with sotalol
Text: Experimental materials include mouse liver tissue, a tweezer, a scissor, 2 millimeters (mm) steel balls, a magnet, a cell lysis solution, a PBS solution, a bicinchoninic acid (BCA) protein quantitative kit, defatted milk powder, and primary antibodies and corresponding secondary antibodies related to α-SMA, autophagy and EMT. Experimental method are as follows. The liver tissue in the embodiment 1 is taken about the size of a grain of rice by using the tweezer and the scissor, added to labeled 1.5 mL Eppendorf (EP) tubes, two 2 mm steel balls and 200-250 microliter (μL) cell lysis solution are added into each of the EP tubes, after the parameters are set, and the EP tubes are placed in the grinder for full grinding. Then, the steel balls are sucked out by using the magnet, and after being applied to the ice for 30 minutes, the EP tubes are centrifuged at 12000 revolutions per minute (rpm) for 30 minutes at 4° C. A standard curve is made, 1 μL protein samples, 19 μL PBS solution and 200 μL (50:1) BCA working solution are added in each well of a 96-well plate, and two replicate wells are added per well. The 96-well plate is put in a 37°° C. drying oven for 30 minutes. The optical density (OD) value at 560 nanometers (nm) is measured by using an enzyme-linked immunosorbent assay (ELISA) on the machine to calculate the concentration of the protein. The protein is boiled in boiling water for 5 minutes before samples loading, and the samples are performed with gel electrophoresis, membrane transfer and blocking sequentially, then the treated samples are exposed after incubating with the primary antibodies and the secondary antibodies.

[3] = system: CCl4-induced liver fibrosis in mice; assay: CCl4-induced liver fibrosis in mice, HE staining and Sirius-red staining of liver tissue; assay type: in vivo
Protocol: Experimental materials include 60 healthy male C57 mice (20-25g/mouse), gavage needles, 1 milliliter (mL) syringes, CCl4 solution, olive oil and sotalol solution. Experimental method is as follows. The CCl4 solution is dissolved in the olive oil solution (CCl4: olive oil=1:[…]), prepared and used immediately, concentration is 0.1milliliters per 20 grams (0.1 mL/20 g), intragastrically administered twice a week for a total of 8 weeks to the mice. The sotalol solution is mixed with physiological saline, prepared and used immediately, concentration is 1 millimole per liter (mM), 0.2 mL/20 g, and intraperitoneally injected once a day for a total of 6-8 weeks to the mice. The mice are randomly divided into four groups: a. a normal control group; b. a model group, mice are intragastrically administered the CCl4 for 8 weeks; c. a CCl4 and sotalol group, mice are treated with the CCl4 alone for 2 weeks, followed by concurrent administration of the sotalol and CCl4 for 6 weeks; d. a sotalol group, mice are intraperitoneally injected the sotalol for 8 weeks. The mice are sacrificed in sequence at the 2nd, 4th, 6th, and 8th weeks of modeling, one for each group, liver samples of the mice are taken out and placed in a -80 Celsius degree (° C.) refrigerator for quick-frozen storage, and other livers are fixed in 4% paraformaldehyde for 24 hours and then embedded in paraffins. […] Then, all mice are sacrificed, and eyeball blood of mice is taken to measure liver function indexes (alanine transaminase abbreviated as ALT, aspartate transaminase abbreviated as AST). In addition, the liver tissue is fixed with formaldehyde and embedded in paraffins for later use.

[4] = system: HSC-T6 cells; assay: Sotalol and TGF-β1 co-culture, proliferation of hepatic stellate cells detected by CCK-8; assay type: cell-based, rat; settings: sotalol 200, 400, 800, 1000 μM added 3 hours before TGF-β1 10 ng/ml; 48 hours incubation
Protocol: Experimental materials include HSC-T6 cells (also referred to as immortalized hepatic rat stellate cell line), a Dulbecco's modified Eagle's medium (DMEM) complete medium, a 96-well plate, a counting chamber (also referred to as hemocytometer), CCK-8 working solution, and the like. Experimental method are as follows. The HSC-T6 cells are cultured in the DMEM culture medium containing 10% fetal bovine serum, 1% double antibodies (penicillin-streptomycin solution) and 1% nonessential amino acid (NEAA) at 37° C. and 5% CO2, and the cells are digested by using trypsin for passage cultivation after the cells are converged to 80% to 90%. Next, the cells are inoculated in the plate, specifically, a density of 7×10^6 cells per liter (cells/L) cell suspension is taken and added at 100 μL cell suspension per well to the 96-well culture plate, each group has 6 replicate wells. […] After incubation for 48 hours, 100 μL of “10% CCK-8 and 90% medium” mixed solution is added to each well and incubated for 1 hour to 4 hours at 37° C., the wavelength is set at 450 nm, and absorbance value is read and recorded at the corresponding wavelength by using a fully-automated enzyme labeling instrument. Effects of sotalol on cell proliferation are detected by CCK-8, and an optimal time of action and an optimal drug concentration are screened.

[5] = system: α-SMA, LC3, p62, ZO-1, N-cadherin, vimentin in HSC-T6 cells; assay: Expression of α-SMA, autophagy-related index and EMT markers in HSCs by Western-blot; assay type: cell-based, rat; settings: sotalol 400 μM, TGF-β1 10 ng/mL, 48 hours
Protocol: Experimental materials include HSC-T6 cells, a DMEM complete medium, cell culture dishes, a cell lysis solution, a PBS solution, a BCA protein quantitative kit, defatted milk powder, primary antibodies and corresponding secondary antibodies related to α-SMA, autophagy and EMT. Experimental method are as follows. The experiment is grouped into a normal control group, a TGF-β 1 group, a sotalol +TGF-β1 group, and a sotalol group, where the stimulation concentration of the TGF-β1 is 10 ng/mL and concentration of the sotalol is 400 μM. The HSC-T6 cells are cultured by using cell culture dishes, incubated, dosed, and added with TGF-β1according to the conditions described in the embodiment 4. After 48 hours, the incubated cells are rinsed by the precooled PBS solution for 3-4 times, and residual PBS liquid is absorbed with a filter paper, 50 μL radioimmune precipitation assay (RIPA) and 0.5 μL (100:1) phenylmethanesulfonyl fluoride (PMSF) with […] concentration are added in a 50 mL culture flask and placed on ice for 30 minutes. Then, the protein is scraped by a cell scraper from the culture flask and suctioned out into the EP tubes, and centrifuged at 12000 rpm for 30 minutes at 4° C. A standard curve is made, 1 μL protein samples, 19 μL PBS solution and 200 μL (50:1) BCA working solution are added in each well of the 96-well plate, and two replicate wells are added per well. The 96-well plate is put in a 37° C. drying oven for 30 minutes. The OD value at 560 nm is measured by using an enzyme-linked immunosorbent assay on the machine to calculate the concentration of the protein. The protein is boiled in boiling water for 5 minutes before samples loading, and the samples are performed with gel electrophoresis, membrane transfer and blocking sequentially, then the treated samples are exposed after incubating with the primary antibodies and the secondary antibodies.

[6] = CCl4 and sotalol group: CCl4 alone 2 weeks, then sotalol (1 mM, 0.2 mL/20 g, i.p. once a day) plus CCl4 for 6 weeks, vs model group

collagen fibers (Sirius-red staining), induction of liver fibrosis by sotalol alone ([3]; sotalol group: sotalol 1 mM, 0.2 mL/20 g, i.p. once a day for 8 weeks, no CCl4): no obvious collagen fibers are observed
SMILES: CC(C)NCC(O)c1ccc(NS(C)(=O)=O)cc1 (centres unmarked) [sotalol]
expression of α-SMA in liver tissue (immunohistochemistry) [1]: down-regulate
accumulation of ZO-1 in liver tissue (Western-blot) [2]: promoted
accumulation of p62 in liver tissue (Western-blot) [2]: promoted
expression of LC3 in liver tissue (Western-blot) [2]: significantly reduced
expression of N-cadherin in liver tissue (Western-blot) [2]: inhibited
expression of vimentin in liver tissue (Western-blot) [2]: inhibited
expression of α-SMA in liver tissue (Western-blot) [2]: significantly reduced
degree of damage of the liver tissue (HE staining) [3, 6]: significantly reduced
degree of fibrous tissue proliferation (HE staining) [3, 6]: significantly reduced
TGF-β1-induced proliferation trend of HSC-T6 cells (CCK-8) [4]: inhibited
accumulation of P62 in HSCs (Western-blot) [5]: promoted
accumulation of ZO-1 in HSCs (Western-blot) [5]: promoted
expression of LC3 in HSCs (Western-blot) [5]: significantly inhibited
expression of N-cadherin in HSCs (Western-blot) [5]: inhibited
expression of vimentin in HSCs (Western-blot) [5]: inhibited
expression of α-SMA in HSCs (Western-blot) [5]: significantly reduced
